We go through one compound from article PMC8507746, “The FHP01 DDX3X Helicase Inhibitor Exerts Potent Anti-Tumor Activity In Vivo in Breast Cancer Pre-Clinical Models” (Cancers, 2021).

Assay [1] relates to WNT signaling (TCF/LEF transcriptional activity). The experiment in a line: TCF/LEF luciferase reporter assay (WNT1/WNT3A) in MDA MB 231 cells. The assay is classed as cell-based, human. As to conditions: MDA MB 231, WNT1/WNT3A, 1 μM, 16 hrs. The method, then: MDA MB 231 cells were seeded at 3 × 10^4 cells/well density in 12-well plates, in triplicate, and transfected with 250 ng of the M50 Super 8× TOPFlash reporter vector (Addgene Plasmid #12456) and 1 μg of expression vectors inducing the WNT pathway (Wnt1-V5, Addgene plasmid #43807, and Wnt3A-V5, Addgene plasmid #43810). Eight hours after transfection, cells were treated with FHP01, XAV939 (Merck, Kenilworth, NJ, USA) or DMSO for indicated times prior to lysis in Passive Lysis Buffer (Promega, Madison, WI, USA). Luciferase activity in cellular lysates was assessed on a Glomax 20/20 luminometer (Promega) using the Luciferase Assay System (Promega). Results were normalized for GFP expression, upon transfection with GFP coding vector (1 μg). Representative results from 3 independent experiments are shown (n = 3). Error bars represent the Standard Error of the Mean. All samples were read at least in triplicate.
For orientation: A reporter such as luciferase makes a cellular process visible.

For assay [2], the system named is phospho-β-catenin. The experiment in a line: Western blot of phospho-β-catenin in MDA MB 231 cells. The format is cell-based, human. Conditions: MDA MB 231, 1 μM, 16 hrs; vehicle = 1.00. The method, then: Cells (1 × 10^5) were seeded in 6-well plates. After 24 h, cells were treated for indicated times with DMSO (vehicle) or FHP01 or XAV939 (Merck). After treatments, cells were washed with cold PBS and total protein extracts obtained by adding 80 µL of “RIPA Lysis buffer” (50 mM Tris-HCl pH 8.0, 150 mM NaCl, 0.5% Sodium deoxycholate, 0.1% SDS, 1% NP-40, 2 mM Orthovanadate, 2mM Sodium fluoride, 1mM Dithiothreitol and 1× protease inhibitors). After mechanicals detachment with cell scrapers, total lysates were collected in tubes, vortexed, and incubated for 15 min on ice. Tumors from mice were collected and disrupted by bead homogenization in Lysing Matrix D tubes using a FastPrep-24 5G homogenizer (MP Biomedicals, Solon, OH, USA) filled with “RIPA Lysis buffer” w:v. Next, samples were centrifuged for 10 min at 16,000× g, and supernatants were collected, representing total cell lysates.
Densitometric analysis of western blots was performed with NIH Image J (National Institutes of Health).

On to `Oc1nc(-c2ccc(C(F)(F)F)cc2)nc2c1CSCC2` [XAV939, reference compound], for which the TCF/LEF-dependent transcription result in assay [1] is listed as “efficient attenuation”. Further, the “Phospho-β-catenin : ERK2” value in assay [2] worked out at 2.64.
